The results in this text go back to ChEMBL document CHEMBL1126391 (Bioorg Med Chem Lett, 1992).

Series [1] addresses T1, Human immunodeficiency virus type 1 reverse transcriptase (Human immunodeficiency virus 1, UniProt Q72547). In words: Ability to inhibit HIV-1 IIIB reverse transcriptase catalyzed incorporation of tritiated thymidine triphosphate onto a biotinylated rA.dT template primer.
Series [2] addresses T1, Human immunodeficiency virus type 1 reverse transcriptase. In words: Ability to inhibit HIV-1 IIIB reverse transcriptase catalyzed incorporation of tritiated thymidine triphosphate onto a biotinylated rN.dN template primer.
A short description of series [3]: Concentration determined to be cytotoxic (reduced cell number as compared with controls), was recorded after 7 days incubation in the […] assay system. The format is cell-based. To be noted: human, H9 cells (H9/HIV-IIIB assay system); read-out: Cell toxicity.
The test system of another series is H9. Briefly: In vitro antiviral activity against human T-cell line (H9) infected with HIV-1 IIIB was determined as the lowest concentration required to reduce tissue culture supernatant p24 levels on day 7 by 90%. The format is functional. To be noted: H9, 168 h.
The test system of series [4] is C8166. In words: In vitro anti-viral activity against C8166 cells (human T-cell line), expressed as the lowest test concentration affording complete protection to the culture (Infectious titre). It counts as functional.
For series [5], the system named is C8166. In words: In vitro anti-viral activity against C8166 cells (human T-cell line), expressed as the lowest test concentration affording complete protection to the culture (Infectious titre); 0.1-1. The format is functional.
For series [6], the system named is C8166. Briefly: In vitro anti-viral activity against C8166 cells (human T-cell line), expressed as the lowest test concentration affording complete protection to the culture (Infectious titre);. 0.1-0.5. It counts as functional.
Series [7] deals with C8166. In words: In vitro anti-viral activity against C8166 cells (human T-cell line), expressed as the lowest test concentration affording complete protection to the culture (Infectious titre);. 0.1-1. It counts as functional.
Series [8] deals with C8166. Briefly: In vitro anti-viral activity against C8166 cells (human T-cell line), expressed as the lowest test concentration affording complete protection to the culture (Infectious titre); 0.1-0.5. The format is functional.
The subject of series [9] is C8166. Briefly: In vitro anti-viral activity against C8166 cells (human T-cell line), expressed as the lowest test concentration affording complete protection to the culture (Infectious titre); 0.01-0.1. The format is functional.

With `CCc1nnc2n1-c1cccnc1N(CC)c1ncccc1-2`, the 50% inhibitory concentration (IC50) in [1] turned out to be 56.6 µM; in [2] it was 20200 nM.
For the molecule `CCN1c2ncccc2-c2ncc(C)n2-c2ccc(OC)nc21`, the MCC at 168 h in [3] is more than 10 µM. In the series on H9, this molecule showed an IC90 of 2.3 nM. Further, the IC50 in series [1] was 0.19 µM; in series [2] it was 156 nM. The same molecule yielded an IC100 in the series on C8166 [4] of 0.01 µM.
In the case of `CCc1cnc2n1-c1cccnc1N(CC)c1ncccc1-2`, the IC50 amounted to 5.63 µM in [1] and 1100 nM in series [2].
In turn, `CCN1c2ncccc2-c2nnc(C)n2-c2c(C)ccnc21` came in with an IC50 in [1] of 198 µM.
Turning to `CCN1c2ncccc2-c2ncc(C)n2-c2ccc(O)nc21`, in [3], the MCC at 168 h was more than 100 µM. In addition, the IC90 with H9 came to 110 nM. Moreover, the IC100 with C8166 [5] is 0.1 µM. Also, the half-maximal inhibitory concentration (IC50) in [1] is 12.2 µM; in series [2], 3200 nM.
As to `CCN1c2ncccc2-c2nccn2-c2ccc(O)nc21`, the figures for the IC50 in series [1] and in series [2] were 23.9 µM and 6980 nM, respectively.
Take `CCN1c2ncccc2-c2nc(C)cn2-c2cccnc21`: the figures for the IC50 in [1] and in series [2] were 11.2 µM and 2750 nM, respectively.
Take `CCN1c2ncccc2-c2ncc(C)n2-c2ccc(N3CCCC3)nc21`: the figures for the IC50 in series [1] and in series [2] were 2.7 µM and 1770 nM, respectively.
Regarding `CCN1c2ncccc2-c2ncc(C)n2-c2ccc(N(C)C)nc21`, the MCC at 168 h in series [3] is more than 100 µM. The molecule further had an IC90 with H9 of 250 nM. The IC100 with C8166 [5] worked out at 0.1 µM. Besides, the IC50 was found to be 2.4 µM in series [1] and 1100 nM in [2].
Turning to `Cc1ccnc2c1-n1ccnc1-c1cccnc1N2C1CC1`, the IC50 turned out to be 2.05 µM in series [1] and 217 nM in [2].
The corresponding values for `CCN1c2ncccc2-c2nnnn2-c2c(C)ccnc21` are 75.1 µM and 6720 nM.
In turn, `CCN1c2ncccc2-c2nnc(C)n2-c2cccnc21` showed an IC50 in series [1] of 38.9 µM.
The same measure, in the same setting: with `CCN1c2ncccc2-c2nnc(-c3ccccc3)n2-c2cccnc21` the figure was more than 100 µM; with `CCN1c2ncccc2-c2nncn2-c2c(C)ccnc21`, 44.5 µM.
`CCN1c2ncccc2-c2nccn2-c2ccc(N(C)C)nc21`: in series [3], the MCC at 168 h stood at 10 µM. This molecule yielded an IC90 with H9 of 41 nM. Further, the concentration for half-maximal inhibition (IC50) in [1] is 3.9 µM; in series [2], 2190 nM. Moreover, the IC100 in the series on C8166 [4] amounted to 0.1 µM.
With `Cc1nnc2n1-c1cccnc1N(C1CC1)c1ncccc1-2`, the IC50 was determined as 11.5 µM in series [1] and 7820 nM in [2].
As to `CCN1c2ncccc2-c2nccn2-c2ccc(OC)nc21`, in series [3], the MCC at 168 h is more than 10 µM. This molecule showed an IC90 in the series on H9 of 8 nM. Further, the IC50 was 0.598 µM in [1] and 258 nM in [2]. Besides, the IC100 with C8166 [4] turned out to be 0.1 µM.
Turning to `CCN1c2ncccc2-c2nccn2-c2ccc(N3CCCC3)nc21`, in [3], the MCC at 168 h worked out at 100 µM. In the series on H9, the IC90 was found to be 82 nM. In the series with C8166 [5], this molecule had an IC100 of 0.1 µM. Further, the IC50 in series [1] came to 3.9 µM; in series [2], 2000 nM.
In the case of `CCN1c2ncccc2-c2nccn2-c2cccnc21`, in series [3], the MCC at 168 h stood at 50 µM. Besides, in the series with C8166 [6], the IC100 worked out at 0.1 µM. The IC90 with H9 is 70 nM. The IC50 worked out at 11.2 µM in [1] and 775 nM in series [2].
Take `CCN1c2ncccc2C(=O)Nc2c(C)ccnc21`: the results for the IC50 in [1] and in [2] were 10.3 µM and 1500 nM, respectively.
For the molecule `CCN1c2ncccc2-c2nncn2-c2cccnc21`, in series [1], the midpoint of inhibition, the IC50, lay at 72.8 µM.
Consider `CCN1c2ncccc2-c2nnc(C(C)C)n2-c2cccnc21`, for which the figures for the IC50 in series [1] and in series [2] were more than 100 µM and 62600 nM, respectively.
In the series on C8166 [7], `CCN1c2ncccc2-c2nccn2-c2c(C)ccnc21` came in with an IC100 of 0.1 µM. In addition, in series [3], the MCC at 168 h is more than 100 µM. In the series with H9, this molecule gave an IC90 of 550 nM. The IC50 in series [1] was found to be 1.62 µM; in [2], 245 nM.
Turning to `Cc1ccnc2c1NC(=O)c1cccnc1N2C1CC1` [NEVIRAPINE], in series [3], the MCC at 168 h was more than 10 µM. Moreover, in the series with H9, the IC90 is 78 nM. In addition, the IC100 in the series with C8166 [8] came out at 0.1 µM.
Consider `CCN1c2ncccc2-c2nnc(CN(C)C)n2-c2cccnc21`, for which the IC50 in series [1] is more than 100 µM; in [2], more than 100000 nM.
`CCN1c2ncccc2-c2ncc(C)n2-c2cccnc21`: the IC100 with C8166 [9] was 0.01 µM. For the same molecule, the MCC at 168 h in series [3] is more than 100 µM. The molecule further yielded an IC90 in the series on H9 of 18 nM. The IC50 in series [1] amounted to 1.22 µM; in series [2] it was 425 nM.

A word on the IC50: it is the point on the concentration scale where inhibition reaches its midpoint. Low values mean greater potency in that assay, high ones weaker potency in that assay. As a reminder, the IC90 is the concentration needed for an effect of 90%. Low values mean greater potency, high ones weaker potency.
